Laboratory results reported in patent US20250108038A1 (priority 2023, published 2025).
Where “and” joins values, the source holds several entries; their conditions need not be identical. Identical values can stand only once.

Assay: Pharmacokinetics after single oral administration to beagle dogs;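 for AUC0-inf of Compound A (as titled): compound A is measured in plasma as a metabolite of the dosed analog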;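 for AUC0-last of Compound A (as titled): compound A is measured in plasma as a metabolite of the dosed analog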;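 for T1/2 of Compound A (as titled): compound A is measured in plasma as a metabolite of the dosed analog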;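 for Tlast of Compound A (as titled): compound A is measured in plasma as a metabolite of the dosed analog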
Type: in vivo
Details: for plasma concentration of Compound I-17/I-19: single PO 10 mg/kg; for plasma concentration of Compound I-17/I-19 (as titled): single PO 80 mg/kg (as titled)
Method: The concentrations of the analytes in the plasma were quantified by liquid chromatography tandem mass spectrometry (LC-MS/MS).
The bioanalytical assay provided a lower limit of quantification (LLOQ) of 1.0 ng/mL and an upper limit of quantification (ULOQ) of 3000 ng/mL for all the analytes. The data of plasma concentration vs. time were analyzed using Phoenix WinNonlin 8.3 to determine the PK properties of the analytes.
The test articles were administered orally by gavage. The nominal dose volume was 5 mL/kg for both analogs.
The observation included appearance, behavior, morbidity and mortality.
Approximately 0.5 mL blood was collected at each scheduled time point from the peripheral veins.
The plasma samples were placed in microcentrifuge tubes and stored at −70+10° C. until analysis.

[1] = after single PO 10 mg/kg of Compound I-17/I-19, female individual
[2] = after single PO 10 mg/kg of Compound I-17/I-19, female individual, 10 mg/kg
[3] = after single PO 10 mg/kg of Compound I-17/I-19, female mean
[4] = after single PO 10 mg/kg of Compound I-17/I-19, male individual, 10 mg/kg
[5] = after single PO 10 mg/kg of Compound I-17/I-19, male mean
[6] = after single PO 80 mg/kg (so in the source) of Compound I-17/I-19, female individual, 80 mg/kg
[7] = after single PO 80 mg/kg (so in the source) of Compound I-17/I-19, female mean
[8] = after single PO 80 mg/kg (so in the source) of Compound I-17/I-19, female mean, 80 mg/kg
[9] = after single PO 80 mg/kg (so in the source) of Compound I-17/I-19, male individual
[10] = after single PO 80 mg/kg (so in the source) of Compound I-17/I-19, male individual, 80 mg/kg
[11] = after single PO 80 mg/kg (so in the source) of Compound I-17/I-19, male mean
[12] = oral 10 mg/kg, female dogs, 10 mg/kg

CC(C)/C=C/COC1(c2ccc(Cl)cc2)c2ccccc2C2=NCCN21 (stereo not shown) [Compound I-17]
T1/2 of Compound A (as titled) [1]: 5.87 h | Tlast of Compound A (as titled) [1]: 24.0 h | AUC0-inf of Compound A (as titled) [2]: 756 ng·h/mL and 946 ng·h/mL | AUC0-last of Compound A (as titled) [2]: 736 ng·h/mL and 915 ng·h/mL | Cmax of Compound A (as titled) [2]: 293 ng/mL and 252 ng/mL | MRT0-inf of Compound A (as titled) [2]: 4.62 h and 5.07 h | MRT0-last of Compound A (as titled) [2]: 3.88 h and 4.14 h | T1/2 of Compound A (as titled) [2]: 6.33 h | Tmax of Compound A (as titled) [2]: 1.00 h and 2.00 h | AUC0-inf of Compound A (as titled) [3]: 851 ng·h/mL | AUC0-last of Compound A (as titled) [3]: 826 ng·h/mL | Cmax of Compound A (as titled) [3]: 272 ng/mL | MRT0-inf of Compound A (as titled) [3]: 4.84 h | MRT0-last of Compound A (as titled) [3]: 4.01 h | T1/2 of Compound A (as titled) [3]: 6.10 h | Tlast of Compound A (as titled) [3]: 24.0 h | Tmax of Compound A (as titled) [3]: 1.50 h | Tmax of Compound A (as titled) (after single PO 10 mg/kg of Compound I-17/I-19, male individual): 1.00 h | AUC0-inf of Compound A (as titled) [4]: 229 ng·h/mL and 522 ng·h/mL | AUC0-last of Compound A (as titled) [4]: 209 ng·h/mL and 513 ng·h/mL | Cmax of Compound A (as titled) [4]: 89.0 ng/mL and 212 ng/mL | MRT0-inf of Compound A (as titled) [4]: 3.07 h and 3.86 h | MRT0-last of Compound A (as titled) [4]: 2.15 h and 3.33 h | T1/2 of Compound A (as titled) [4]: 3.08 h and 5.70 h | Tlast of Compound A (as titled) [4]: 8.00 h and 24.0 h | AUC0-inf of Compound A (as titled) [5]: 376 ng·h/mL | AUC0-last of Compound A (as titled) [5]: 361 ng·h/mL | Cmax of Compound A (as titled) [5]: 151 ng/mL | MRT0-inf of Compound A (as titled) [5]: 3.46 h | MRT0-last of Compound A (as titled) [5]: 2.74 h | T1/2 of Compound A (as titled) [5]: 4.39 h | Tlast of Compound A (as titled) [5]: 16.0 h | Tmax of Compound A (as titled) [5]: 1.00 h | T1/2 of Compound A (after single PO 80 mg/kg (so in the source) of Compound I-17/I-19, female individual): 24.0 h | Cmax of Compound A [6]: 4.00 ng/mL and 2.00 ng/mL | MRT0-inf of Compound A [6]: 0.989 h and 0.999 h | MRT0-last of Compound A [6]: 11.2 h and 11.5 h | Tmax of Compound A [6]: 7.07 h and 7.31 h | MRT0-inf of Compound A [7]: 0.994 h | Tlast of Compound A [7]: 323 h | AUC0-last of Compound A [8]: 323 ng·h/mL | MRT0-last of Compound A [8]: 11.3 h | Tlast of Compound A [9]: 24.0 h | Tmax of Compound A [9]: 2.00 h | AUC0-inf of Compound A [10]: 278 ng·h/mL and 298 ng·h/mL | AUC0-last of Compound A [10]: 258 ng·h/mL and 278 ng·h/mL | Cmax of Compound A [10]: 25.9 ng/mL and 31.6 ng/mL | MRT0-inf of Compound A [10]: 9.72 h and 9.19 h | MRT0-last of Compound A [10]: 7.90 h and 7.43 h | T1/2 of Compound A [10]: 6.33 h and 6.23 h | AUC0-inf of Compound A [11]: 288 ng·h/mL | AUC0-last of Compound A [11]: 268 ng·h/mL | Cmax of Compound A [11]: 28.8 ng/mL | MRT0-inf of Compound A [11]: 9.45 h | MRT0-last of Compound A [11]: 7.66 h | T1/2 of Compound A [11]: 6.28 h | Tlast of Compound A [11]: 24.0 h | Tmax of Compound A [11]: 2.00 h | Cmax of the analog (Compound I-17/I-19) (oral 10 mg/kg, female dogs): 272 ng/mL | T1/2 of the analog (Compound I-17/I-19) (oral 10 mg/kg, female dogs): 6.10 hours | Tmax of the analog (Compound I-17/I-19) (oral 10 mg/kg, female dogs): 1.5 hour | AUC0-last of the analog (Compound I-17/I-19) [12]: 826 ng·h/mL and 836 ng·h/mL | MRT0-last of the analog (Compound I-17/I-19) [12]: 4.01 hours and 2.47 hours | Cmax of the analog (Compound I-17/I-19) (oral 10 mg/kg, male dogs): 151 ng/mL | T1/2 of the analog (Compound I-17/I-19) (oral 10 mg/kg, male dogs): 4.39 hours | Tmax of the analog (Compound I-17/I-19) (oral 10 mg/kg, male dogs): 1 hour | MRT0-last of the analog (Compound I-17/I-19) (oral 10 mg/kg, male dogs, 10 mg/kg): 2.74 hours and 2.30 hours | plasma concentration of Compound I-17/I-19 (0.500 h, female individual, 10 mg/kg): 128 ng/mL and 106 ng/mL | plasma concentration of Compound I-17/I-19 (0.500 h, female mean): 117 ng/mL | plasma concentration of Compound I-17/I-19 (0.500 h, male individual, 10 mg/kg): 73.5 ng/mL and 176 ng/mL | plasma concentration of Compound I-17/I-19 (0.500 h, male mean): 125 ng/mL | plasma concentration of Compound I-17/I-19 ([…] h, female individual, 10 mg/kg): 293 ng/mL and 236 ng/mL | plasma concentration of Compound I-17/I-19 ([…] h, female mean): 265 ng/mL | plasma concentration of Compound I-17/I-19 ([…] h, male individual, 10 mg/kg): 89.0 ng/mL and 212 ng/mL | plasma concentration of Compound I-17/I-19 ([…] h, male mean): 151 ng/mL | plasma concentration of Compound I-17/I-19 (2.00 h, female individual, 10 mg/kg): 164 ng/mL and 252 ng/mL | plasma concentration of Compound I-17/I-19 (2.00 h, female mean): 208 ng/mL | plasma concentration of Compound I-17/I-19 (2.00 h, male individual, 10 mg/kg): 51.0 ng/mL and 101 ng/mL | plasma concentration of Compound I-17/I-19 (2.00 h, male mean): 75.8 ng/mL | plasma concentration of Compound I-17/I-19 (4.00 h, female individual, 10 mg/kg): 43.0 ng/mL and 77.4 ng/mL | plasma concentration of Compound I-17/I-19 (4.00 h, female mean): 60.2 ng/mL | plasma concentration of Compound I-17/I-19 (4.00 h, male individual, 10 mg/kg): 11.2 ng/mL and 26.5 ng/mL | plasma concentration of Compound I-17/I-19 (4.00 h, male mean): 18.9 ng/mL | plasma concentration of Compound I-17/I-19 (6.00 h, female individual, 10 mg/kg): 20.8 ng/mL and 28.2 ng/mL | plasma concentration of Compound I-17/I-19 (6.00 h, female mean): 24.5 ng/mL | plasma concentration of Compound I-17/I-19 (6.00 h, male individual, 10 mg/kg): 6.77 ng/mL and 10.2 ng/mL | plasma concentration of Compound I-17/I-19 (6.00 h, male mean): 8.47 ng/mL | plasma concentration of Compound I-17/I-19 (8.00 h, female individual, 10 mg/kg): 13.6 ng/mL and 15.0 ng/mL | plasma concentration of Compound I-17/I-19 (8.00 h, female mean): 14.3 ng/mL | plasma concentration of Compound I-17/I-19 (8.00 h, male individual, 10 mg/kg): 4.57 ng/mL and 8.39 ng/mL | plasma concentration of Compound I-17/I-19 (8.00 h, male mean): 6.48 ng/mL | plasma concentration of Compound I-17/I-19 (24.0 h, female individual, 10 mg/kg): 2.29 ng/mL and 3.32 ng/mL | plasma concentration of Compound I-17/I-19 (24.0 h, female mean): 2.81 ng/mL | plasma concentration of Compound I-17/I-19 (24.0 h, male individual): 1.16 ng/mL | plasma concentration of Compound I-17/I-19 (24.0 h, male individual, 10 mg/kg): BQL | plasma concentration of Compound I-17/I-19 (as titled) (0.500 h, female individual): 5.44 ng/mL | plasma concentration of Compound I-17/I-19 (as titled) (0.500 h, female individual, 80 mg/kg): BQL | plasma concentration of Compound I-17/I-19 (as titled) (0.500 h, male individual, 80 mg/kg): 7.45 ng/mL and 13.8 ng/mL | plasma concentration of Compound I-17/I-19 (as titled) (0.500 h, male mean): 10.6 ng/mL | plasma concentration of Compound I-17/I-19 (as titled) (2.00 h, female individual, 80 mg/kg): 33.0 ng/mL and 26.4 ng/mL | plasma concentration of Compound I-17/I-19 (as titled) (2.00 h, female mean): 29.7 ng/mL | plasma concentration of Compound I-17/I-19 (as titled) (2.00 h, male individual, 80 mg/kg): 25.9 ng/mL and 31.6 ng/mL | plasma concentration of Compound I-17/I-19 (as titled) (2.00 h, male mean): 28.8 ng/mL | plasma concentration of Compound I-17/I-19 (as titled) (4.00 h, female individual, 80 mg/kg): 35.5 ng/mL and 25.4 ng/mL | plasma concentration of Compound I-17/I-19 (as titled) (4.00 h, female mean): 30.5 ng/mL | plasma concentration of Compound I-17/I-19 (as titled) (4.00 h, male individual, 80 mg/kg): 25.6 ng/mL and 29.0 ng/mL | plasma concentration of Compound I-17/I-19 (as titled) (4.00 h, male mean): 27.3 ng/mL | plasma concentration of Compound I-17/I-19 (as titled) (6.00 h, female individual, 80 mg/kg): 22.9 ng/mL and 18.1 ng/mL | plasma concentration of Compound I-17/I-19 (as titled) (6.00 h, female mean): 20.5 ng/mL | plasma concentration of Compound I-17/I-19 (as titled) (6.00 h, male individual, 80 mg/kg): 14.2 ng/mL and 16.7 ng/mL | plasma concentration of Compound I-17/I-19 (as titled) (6.00 h, male mean): 15.4 ng/mL | plasma concentration of Compound I-17/I-19 (as titled) (8.00 h, female individual, 80 mg/kg): 21.8 ng/mL and 14.4 ng/mL | plasma concentration of Compound I-17/I-19 (as titled) (8.00 h, female mean): 18.1 ng/mL | plasma concentration of Compound I-17/I-19 (as titled) (8.00 h, male individual, 80 mg/kg): 14.9 ng/mL and 13.7 ng/mL | plasma concentration of Compound I-17/I-19 (as titled) (8.00 h, male mean): 14.3 ng/mL | plasma concentration of Compound I-17/I-19 (as titled) (24.0 h, female individual, 80 mg/kg): 4.17 ng/mL and 3.23 ng/mL | plasma concentration of Compound I-17/I-19 (as titled) (24.0 h, female mean): 3.70 ng/mL | plasma concentration of Compound I-17/I-19 (as titled) (24.0 h, male individual, 80 mg/kg): 2.20 ng/mL and 2.28 ng/mL | plasma concentration of Compound I-17/I-19 (as titled) (24.0 h, male mean): 2.24 ng/mL | plasma concentration of Compound I-17/I-19 (as titled) ([…] h, female mean): 15.9 ng/mL | plasma concentration of Compound I-17/I-19 (as titled) ([…] h, male mean): 22.2 ng/mL
